Assays:
Assay type in all cases: cell-based, rat
SOX9 = SOX9 luciferase reporter assay in transfected astrocytes; settings: cultured rat astrocytes, 24 h treatment
Excerpt: Cultures early after plating bear characteristics of immature and reactive astroctyes associated with acute damage. In this assay, primary astrocytes are transfected with a SOX9 reporter construct that consists of 4 repeats of the SOX9 binding site coupled to the mouse Col2a1 minimal promoter cloned upstream of a luciferase gene in the plasmid pGL4, as previously described in WO 2008/049226. After normalization for transfection efficiency, SOX9 activity can be monitored in transfected astrocytes by luciferase activity. Cells transfected with the SOX9 reporter construct were cultured in the presence and absence of potential inhibitors for 24 hours at which time the cells were lysed and luciferase levels measured. Compounds that reduced the levels of luciferase activity relative to control wells were considered as positive “hits”. In a secondary screen, false positives that cause a reduction in luciferase activity due to effects on cell viability, were eliminated using a cell viability assay (CellTiter-Flour—Promega). Subsequent to secondary screening, the “hits” were evaluated for their affect on SOX9 target gene expression by Q-PCR studies in primary astrocytes.
The utility of calmodulin antagonists (inhibitor) to decrease SOX9 target gene expression was evaluated in cultured rat astrocytes transfected with pGL4.1 4×48 Col2a1 prepared as described in Example 1. This plasmid contains 4-48 bp SOX9-binding sites from the Col2A1 enhancer which promote luciferase reporter gene expression in cells where SOX9 is active i.e. in the nucleus. The day after transfection, cells were treated for 24 h with inhibitor in concentrations as described below and in FIG. 5 before the luciferase assay was performed.
In this example, the potential of compounds that modulate calcium channels to modulate SOX9 activity is tested. The compounds were evaluated in cultured rat astrocytes transfected with pGL4.1 4×48 Col2a1. The day after transfection, cells were treated for 24 h with selected inhibitors before the luciferase assay was performed.
Antagonists to TRPV4 cation channel were tested to determine their ability to decrease the activity of SOX9 in astrocytes. The effect of TRPV4 antagonists on SOX9 function was evaluated in cultured rat astrocytes transfected with pGL4.1 4×48 Col2a1. The day after transfection, cells were treated for 24 h with 2-APB (100 μM) or ruthenium red (10 μM) before the luciferase assay was performed. […] With respect to SOX9 target genes, Q-PCR analysis of aged primary astrocyte cultures was performed to determine the impact of the TRPV4 antagonists on SOX9. […] Collagen IV is a significant scarring extracellular matrix produced by astrocytes and contributing to the inhibitory properties of the glial scar.

SOX9 target genes = assay: Q-PCR of SOX9 target gene expression in aged primary astrocyte cultures
Excerpt: Another approach to modulating the capacity of calmodulin to transport SOX9 into the nucleus is via competitive inhibition of calmodulin binding. To that effect, a novel peptide (SOX-CAL) was generated to specifically block the calmodulin SOX9 binding site. The SOX-CAL peptide sequence, […] (SEQ ID NO.8), corresponds with the calmodulin binding sequence in SOX9. To ensure the peptide's entry into the cell, it was synthesized fused to the protein transduction domain of the HIV-1 Tat protein. […] This analysis was performed in contrast to the control FLAG-TAT peptide.
Antagonists to TRPV4 cation channel were tested to determine their ability to decrease the activity of SOX9 in astrocytes. The effect of TRPV4 antagonists on SOX9 function was evaluated in cultured rat astrocytes transfected with pGL4.1 4×48 Col2a1. The day after transfection, cells were treated for 24 h with 2-APB (100 μM) or ruthenium red (10 μM) before the luciferase assay was performed. The broad-spectrum transient receptor potential (TRP) channel antagonist 2-APB inhibited SOX9 activity by ˜70%, while the vanniloid subfamily-specific TRP antagonist ruthenium red inhibited SOX9 activity by ˜25%. With respect to SOX9 target genes, Q-PCR analysis of aged primary astrocyte cultures was performed to determine the impact of the TRPV4 antagonists on SOX9. Treatment with ruthenium red specifically reduces aggrecan and Col4a expression by 40% and 50%, respectively (FIG. 6B), while 2-APB reduces XT-1, HAPLN1, aggrecan, Col2a, and Col4a by 50%, 70%, 80%, 50%, and 60% respectively (FIG. 6B, C), in rat primary astrocytes after a 48 hour exposure (n=3). […] Based on the role that the TRP channels serve in modulating calcium levels, and therefore calmodulin activity, the effect of the TRP channel blockers on SOX9 activity appears to be indirect.

Collagen IV = assay: Western blotting of astrocyte culture protein extract probed with anti-collagen IV; settings: 20 uM

SMILES: CN(C)CCCN1c2ccccc2Sc2ccc(Cl)cc21 [chlorpromazine]
- concentration at which the decrease in luciferase reporter activity is optimized / maximal (SOX9): 20 µM
- luciferase reporter activity (SOX9 activity) (SOX9; various concentrations (FIG. 5)): apparent dose dependent response to limiting luciferase expression
- expression of C4ST (SOX9 target genes; 20 uM, 48 hours, vs vehicle): significantly reduced
- expression of XT1 (SOX9 target genes; 20 uM, 48 hours, vs vehicle): significantly reduced
- expression of XT2 (SOX9 target genes; 20 uM, 48 hours, vs vehicle): significantly reduced
- SOX9 target genes expression (SOX9 target genes; longer treatments (1 week)): even more profound reductions
- level of collagen IV (Western blot) (Collagen IV): reduced level of collagen

Reference: patent US20130266663A1, “SOX9 INHIBITORS” (priority 2010, published 2013)
